pIC50: −log10 of the molar value.
Target: human PD-L1 (Homo sapiens (Human), UniProt Q9NZQ7)
Experiment: Enzyme-Linked Immunosorbent Assay (ELISA), PD-1/PD-L1 binding
Conditions: PD-1/PD-L1 ELISA, human PD-L1 coated plates, Table 1
Procedure, shortened: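 Plates coated with […] human PD-L1 overnight at 4° C, blocked, then 1:5 serial compound dilutions added with human PD-1 […] 0.31 μg/mL for 1 h at 37° C. Bound PD-1 detected with streptavidin-HRP and TMB (20 min, 37° C); absorbance read at 450 nm after H2SO4 stop.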

human PD-L1, sequence (Q9NZQ7 19-239): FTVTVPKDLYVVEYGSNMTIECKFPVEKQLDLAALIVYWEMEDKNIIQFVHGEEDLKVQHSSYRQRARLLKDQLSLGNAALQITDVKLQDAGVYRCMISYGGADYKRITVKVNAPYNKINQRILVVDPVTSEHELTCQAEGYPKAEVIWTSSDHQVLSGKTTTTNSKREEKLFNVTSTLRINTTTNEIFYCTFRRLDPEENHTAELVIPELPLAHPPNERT

| pIC50 | SMILES |
| --- | --- |
| > 8.00 | COc1cc(-c2cccc(-c3cccc(NC(=O)c4ccccn4)c3C)c2C)cc(F)c1CN1CC(O)C1 [Example 1.388] |
| 5.00 to 6.00 | COc1cc(-c2cccc(-c3cccc(NC(=O)c4ccnc(N)c4)c3C)c2C)cc(F)c1CNCCO [Example 1.389] |
| 5.00 to 6.00 | COc1cc(-c2cccc(-c3cccc(NC(=O)c4ccc(N)nc4)c3C)c2C)cc(F)c1CNCCO [Example 1.390] |
| 6.00 to 8.00 | COc1cc(-c2cccc(-c3cccc(NC(=O)N4CCNCC4)c3C)c2C)cc(F)c1CN [Example 1.392] |
| 6.00 to 8.00 | COc1cc(-c2cccc(-c3cccc(NC(=O)C4CCN(CCO)CC4)c3C)c2C)cc(F)c1CN [Example 1.393] |
| 5.00 to 6.00 | COc1cc(-c2cccc(-c3cccc(NC(=O)C4CCCNC4)c3C)c2C)cc(F)c1CN (centres unmarked) [Example 1.394] |
| 6.00 to 8.00 | COc1cc(-c2cccc(-c3cccc(NC(=O)C4CCN(CCO)CC4)c3C)c2C)cc(F)c1CNCCO [Example 1.395] |
| > 8.00 | COc1cc(-c2cccc(-c3cccc(NC(=O)c4ccccn4)c3C)c2C)cc(F)c1CNCCO [Example 1.396] |
| 6.00 to 8.00 | COc1cc(-c2cccc(-c3cccc(NC(=O)C4CCNCC4)c3C)c2C)cc(F)c1CNCCO [Example 1.397] |

Same assay, conditions: human PD-1/PD-L1 ELISA, plates coated with human PD-L1

| pIC50 | SMILES |
| --- | --- |
| > 8.00 | CNCc1c(F)cc(-c2cccc(-c3cccc(NC(=O)c4nc5c(s4)CN(CCO)CC5)c3F)c2C)cc1OC [Example 1.398] |
| > 8.00 | COc1cc(-c2cccc(-c3cccc(NC(=O)c4ccc(CNCCO)cn4)c3C)c2C)cc(F)c1CNCCS(=O)(=O)O [Example 1.399] |
| > 8.00 | COc1cc(-c2cccc(-c3cccc(NC(=O)c4nc5c(s4)CN(CCO)CC5)c3F)c2C)cc(F)c1CNCCO [Example 1.400] |
| > 8.00 | COc1cc(-c2cccc(-c3cccc(NC(=O)c4ccc(CNCCO)cn4)c3C)c2C)cc(F)c1CNCCCC(=O)O [Example 1.401] |
| > 8.00 | COc1cc(-c2cccc(-c3cccc(NC(=O)c4ccc(CN[C@@](C)(CO)C(=O)O)cn4)c3C)c2C)cc(F)c1CN[C@@](C)(CO)C(=O)O [Example 1.402] |
| > 8.00 | COc1cc(-c2cccc(-c3cccc(NC(=O)c4nc5c(s4)CNCC5)c3F)c2C)cc(F)c1CNCCCC(=O)O [Example 1.403] |
| > 8.00 | COc1cc(-c2cccc(-c3cccc(NC(=O)c4ccc(CNCCO)cn4)c3C)c2C)cc(F)c1CNCCO [Example 1.404] |

Same assay, conditions: plate-coated human PD-L1, biotinylated Human PD-1, absorbance at 450 nm

| pIC50 | SMILES |
| --- | --- |
| > 8.00 | COc1c(CNC[C@@H]2CCC(=O)N2)ccc(-c2cccc(-c3cccc(NC(=O)c4cn(C)c(=O)n(C)c4=O)c3Cl)c2Cl)c1F [Example 2.001] |
| > 8.00 | COc1cc(-c2cccc(-c3cccc(NC(=O)c4cn(C)c(=O)n(C)c4=O)c3Cl)c2Cl)cc(F)c1CN1CC2(CCNC2=O)C1 [Example 2.002] |
| > 8.00 | COc1cc(-c2cccc(-c3cccc(NC(=O)c4cn(C)c(=O)n(C)c4=O)c3Cl)c2Cl)cc(F)c1CN1CCC[C@@H](C(=O)O)C1 [Example 2.003] |
| > 8.00 | COc1cc(-c2cccc(-c3cccc(NC(=O)c4cn(C)c(=O)n(C)c4=O)c3Cl)c2Cl)cc(F)c1CN1CCC(C(=O)O)CC1 [Example 2.004] |
| > 8.00 | COc1cc(-c2cccc(-c3cccc(NC(=O)c4cn(C)c(=O)n(C)c4=O)c3Cl)c2Cl)cc(F)c1CN1CCC(C)(C(=O)O)CC1 [Example 2.005] |
| 6.00 to 8.00 | COc1cc(-c2cccc(-c3cccc(NC(=O)c4cn(C)c(=O)n(C)c4=O)c3C)c2Cl)cc(F)c1CN1CCC2(CCNC2=O)CC1 [Example 2.006] |
| > 8.00 | COc1cc(-c2cccc(-c3cccc(NC(=O)c4cn(C)c(=O)n(C)c4=O)c3C)c2Cl)cc(F)c1CN1CCC2(CCNC2=O)C1 (centres unmarked) [Example 2.007] |
| > 8.00 | COc1cc(-c2cccc(-c3cccc(NC(=O)c4cn(C)c(=O)n(C)c4=O)c3Cl)c2Cl)cc(F)c1CN1CC(C)(C(=O)O)C1 [Example 2.008] |
| > 8.00 | COc1cc(-c2cccc(-c3cccc(NC(=O)c4cn(C)c(=O)n(C)c4=O)c3Cl)c2Cl)cc(F)c1CN1CCC(C)(O)CC1 [Example 2.009] |
| > 8.00 | COc1cc(-c2cccc(-c3cccc(NC(=O)c4cn(C)c(=O)n(C)c4=O)c3Cl)c2Cl)cc(F)c1CN1CC[C@@H](C(=O)O)C1 [Example 2.010] |

— patent publication US11266643B2, “Triaryl compounds for treatment of PD-L1 diseases” (CHEMOCENTRYX, INC., priority 2019, dated 2022)
